In US9670201B2, “Methyl- and trifluoromethyl-substituted pyrrolopyridine modulators of RORC2 and methods of use thereof” (Pfizer Inc., priority 2014, dated 2017) one finds IC50 data, which are given here for 13 molecules.

The assay deals with RORC2 ligand binding domain (6-His-RORC2 LBD) (Homo sapiens (Human), UniProt P51449). The experiment in a line: Co-activator recruitment by TR-FRET. The following applies: 6-His-RORC2 LBD / SRC1-2 coactivator peptide, Table 1. Format: biochemical. (In TR-FRET formats the signal depends on donor and acceptor labels being close together.)

pIC50: −log10 of the molar value.

Sequence of RORC2 ligand binding domain (6-His-RORC2 LBD) (P51449 269-508): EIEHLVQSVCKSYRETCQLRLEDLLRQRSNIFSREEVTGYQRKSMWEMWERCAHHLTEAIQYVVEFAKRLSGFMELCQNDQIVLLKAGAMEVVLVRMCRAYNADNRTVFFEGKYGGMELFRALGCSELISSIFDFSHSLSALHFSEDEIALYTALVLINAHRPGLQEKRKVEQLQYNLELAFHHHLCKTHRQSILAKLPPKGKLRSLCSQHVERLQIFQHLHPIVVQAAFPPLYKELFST

The molecule `Cc1c(NC(=O)c2cc(O)cc(C#N)c2)cnc2c1c([C@@H]1CCN(C(=O)C3CCCC3)C(C)(C)C1)cn2C` [Example 64, (R)-3-cyano-N-(3-(1-(cyclopentanecarbonyl)-2,2-dimethylpiperidin-4-yl)-1,4-dimethyl-1H-pyrrolo[2,3-b]pyridin-5-yl)-5-hydroxybenzamide] had a pIC50 of 7.38.

In turn, `Cn1cc([C@@H]2CCN(C(=O)C3CCCC3)C(C)(C)C2)c2c(C(F)(F)F)c(NC(=O)c3cccc(C#N)c3)cnc21` [Example 65, (R)-3-cyano-N-(3-(1-(cyclopentanecarbonyl)-2,2-dimethylpiperidin-4-yl)-1-methyl-4-(trifluoromethyl)-1H-pyrrolo[2,3-b]pyridin-5-yl)benzamide] gave a pIC50 of 8.24.

As for `Cc1c(NC(=O)c2cccc(C#N)c2)cnc2c1c([C@@H]1CCN(C(=O)C[C@@H](O)C(F)(F)F)C(C)(C)C1)cn2C` [Example 73, 3-cyano-N-(3-((R)-2,2-dimethyl-1-((R)-4,4,4-trifluoro-3-hydroxybutanoyl)piperidin-4-yl)-1,4-dimethyl-1H-pyrrolo[2,3-b]pyridin-5-yl)benzamide], the pIC50 was 7.65.

`Cc1c(NC(=O)c2cccc(C#N)c2)cnc2c1c([C@@H]1CCN(C(=O)CC3CCCC3)C(C)(C)C1)cn2C` [Example 74, (R)-3-cyano-N-(3-(1-(2-cyclopentylacetyl)-2,2-dimethylpiperidin-4-yl)-1,4-dimethyl-1H-pyrrolo[2,3-b]pyridin-5-yl)benzamide] showed a pIC50 of 8.21.

`Cc1c(NC(=O)c2cccc(C#N)c2)cnc2c1c([C@@H]1CCN(C(=O)CC3CCCCC3)C(C)(C)C1)cn2C` [Example 75, (R)-3-cyano-N-(3-(1-(2-cyclohexylacetyl)-2,2-dimethylpiperidin-4-yl)-1,4-dimethyl-1H-pyrrolo[2,3-b]pyridin-5-yl)benzamide] showed a pIC50 of 8.14.

The molecule `Cc1c(NC(=O)c2cccc(C#N)c2)cnc2c1c([C@@H]1CCN(C(=O)CC3CCC3)C(C)(C)C1)cn2C` [Example 76, (R)-3-cyano-N-(3-(1-(2-cyclobutylacetyl)-2,2-dimethylpiperidin-4-yl)-1,4-dimethyl-1H-pyrrolo[2,3-b]pyridin-5-yl)benzamide] had a pIC50 of 8.12.

In the case of `CC(C)C(=O)N1C[C@H]2CC[C@@H](C1)[C@@H]2c1cn(C)c2ncc(NC(=O)c3cccc(C#N)c3)c(C(F)(F)F)c12` [Example 77, 3-cyano-N-(3-((1R,5S,8r)-3-isobutyryl-3-azabicyclo[3.2.1]octan-8-yl)-1-methyl-4-(trifluoromethyl)-1H-pyrrolo[2,3-b]pyridin-5-yl)benzamide], the pIC50 is 8.28.

Regarding `Cn1cc(C2[C@@H]3CC[C@H]2CN(C(=O)C2CCCC2)C3)c2c(C(F)(F)F)c(NC(=O)c3cccc(C#N)c3)cnc21` (stereo partly drawn) [Example 79, 3-cyano-N-{3-((1R,5S,8r)-3-(cyclopentanecarbonyl)-3-azabicyclo[3.2.1]octan-8-yl]-1-methyl-4-(trifluoromethyl)-1H-pyrrolo[2,3-b]pyridin-5-yl}benzamide], the pIC50 was 7.41. This pIC50 lies 0.87 log units lower than the previous one.

For `CC(C)C(=O)N1CC[C@@H](c2cn(C)c3ncc(NC(=O)c4cccc(C#N)c4F)c(C(F)(F)F)c23)[C@@H](C)C1` [Example 82, 3-cyano-2-fluoro-N-(3-((3R,4R)-1-isobutyryl-3-methylpiperidin-4-yl)-1-methyl-4-(trifluoromethyl)-1H-pyrrolo[2,3-b]pyridin-5-yl)benzamide], the pIC50 is 8.29.

`Cc1c(NC(=O)c2cccc(C#N)c2)cnc2c1c([C@@H]1CCN(C(=O)C(C)C3CC3)C[C@@H]1C)cn2C` (stereo partly drawn) [Example 86, 3-cyano-N-(3-((3R,4R)-1-(2-cyclopropylpropanoyl)-3-methylpiperidin-4-yl)-1,4-dimethyl-1H-pyrrolo[2,3-b]pyridin-5-yl)benzamide]: the pIC50 is 7.80.

Consider `COc1cc(C#N)cc(C(=O)Nc2cnc3c(c([C@@H]4CCN(C(=O)C5CCCC5)[C@@H](C)C4)cn3C)c2C)c1` [Example 90, 3-cyano-N-(3-((2S,4R)-1-(cyclopentanecarbonyl)-2-methylpiperidin-4-yl)-1,4-dimethyl-1H-pyrrolo[2,3-b]pyridin-5-yl)-5-methoxybenzamide], for which the pIC50 is 7.67.

As to `COc1ccc(C(=O)Nc2cnc3c(c(C4[C@@H]5CC[C@H]4CN(C(=O)C4CCCC4)C5)cn3C)c2C)cc1C#N` (stereo partly drawn) [Example 99, 3-cyano-N-(3-((1R,5S,8r)-3-(cyclopentanecarbonyl)-3-azabicyclo[3.2.1]octan-8-yl)-1,4-dimethyl-1H-pyrrolo[2,3-b]pyridin-5-yl)-4-methoxybenzamide], the pIC50 was 7.68.

On to `Cc1c(NC(=O)c2cccc(C#N)c2)cnc2c1c([C@@H]1CCN(C(=O)C(C)C)[C@@H](C)C1)cn2C` [Example 113, 3-cyano-N-(3-((2S,4R)-1-isobutyryl-2-methylpiperidin-4-yl)-1,4-dimethyl-1H-pyrrolo[2,3-b]pyridin-5-yl)benzamide], for which the pIC50 is 7.69.

What is called pIC50 is −log10 of the IC50, conventionally taken in molar units. Read a low pIC50 as a high IC50.
